Reference: patent publication US20220251152A1, “COMPOSITIONS AND METHODS FOR SELECTIVE PROTEIN DEGRADATION” (Novartis AG, priority 2019, published 2022)
Entries after “also recorded” stand apart in the source; their conditions may differ. Each block holds one molecule with its values, some of them ahead of it. Where a SMILES comes first, the peptide text is derived from it. The star is where a group is joined. Cbz = O=C(OCc1ccccc1)*

Assays:
[1] = target: T1, CAR19-CARBtag (Homo sapiens, UniProt Q96SW2+Q9UKS7, DEL175-229); assay: CAR19-CARBtag dose response in Jurkat NFAT luciferase cells, flow cytometry; assay type: cell-based; conditions: 10-0.001 μM, 24 hours; FIG. 38B
T1 construct: signal peptide […]; 16GS linker […]; expressed in transfected cells; host or cells: Jurkat NFAT luciferase (JNL) cells, lentiviral infection at MOI 4
Method: (§1) Cells were expanded for one week before using. […] All cells were harvested at 24 hours after initial compound treatment for western blotting and flow cytometry analysis.
After incubation the cells were washed using PBS.

[2] = target: IKZF1 (Homo sapiens, UniProt Q13422+Q96SW2); assay: Degradation of IKZF1; assay type: cell-based
[3] = target: T2, CARBtag-MITF-FLAG (Homo sapiens, UniProt O75030+Q9UKS7); assay: Western blot of HEK293T cells transiently transfected with CARBtag-MITF-FLAG; assay type: cell-based; conditions: 10 μM, 1 μM, 0.1 μM, or 0.01 μM Compound I-112 or lenalidomide
T2 construct: 16GS linker […]; MITF (NM_000248); expressed in transfected cells; host or cells: HEK293T (ATCC CRL-3216), transient, FuGene HD, CMV promoter vector

[4] = target: IKZF3 (Homo sapiens, UniProt Q96SW2+Q9UKT9); assay: Degradation of IKZF3; assay type: cell-based
[5] = target: T1, CAR19-CARBtag; assay: Jurkat NFAT luciferase (JNL) CAR functional assay, CAR19-CARB-tag cells; assay type: cell-based; conditions: 8-point dilution, 10 μM top, 15 hours pre-incubation; FIG. 38C
Method: Half of the 8-point Compound I-112 treated cells received 20 μl of K562 and the other half received 20 μl of Nalm6 cells.

[6] = target: IKZF2 (Homo sapiens, UniProt Q96SW2+Q9UKS7); assay: Degradation of IKZF2; assay type: cell-based
[7] = target: T1, CAR19-CARBtag; assay: Western blot of JNL cells expressing CAR19-CARBtag; assay type: cell-based; conditions: various doses of Compound I-112 for 24 hours
[8] = target: T3, CARBtag-16GS-MITF-FLAG (Homo sapiens, UniProt O75030+Q9UKS7); assay: CARBtag-16GS-MITF-FLAG degradation in HEK293T cells, Western blot; assay type: cell-based; conditions: 4-point log dilution from 10 μM, 24 hours, FIG. 39
T3 construct: MITF (NM_000248); expressed in transfected cells; host or cells: HEK293T (ATCC CRL-3216), transient, FuGene HD, CMV promoter vector

[9] = tested on: CD19-16GS-HilD-V5; assay: CD19-16GS-HilD-V5 expression in HEK293T cells, Western blot; assay type: cell-based; conditions: different doses, 24 hours, data not shown
Method: Cellular gene expression and treatment: HEK293T (ATCC CRL-3216) cells were cultured in DMEM with 10% FBS and pen/strep at 37° C. and 5% CO2. The cells were transfected with either CARBtag-16GS-MITF-FLAG or CARBtag-16GS-MITF-FLAG and CD19-16GS-HilD-V5 using FuGene HD (Promega E2311) using a 3:1 FuGene HD to DNA ratio. […] Cells were treated with the indicated compound for 24 hours and then were prepared for western blot.
The gels were run in triplicate (one for each antibody).

[10] = target: T1, CAR19-CARBtag; assay: CAR19-CARBtag dose response in Jurkat NFAT luciferase cells, Western blot; assay type: cell-based; conditions: 10-0.001 μM, 24 hours; FIG. 38A
Method: as §1
The gels were run in duplicate, one for actin and the other for either V5 or CD3Z.

[11] = tested on: IKZF3 degron-tagged melanogenesis associated transcription factor (MITF); assay: Western blot of IKZF3-tagged MITF in HEK293T cells; assay type: cell-based, human; conditions: for ability of the tag to mediate lenalidomide-dependent degradation of MITF: HEK293T, Western blot; for degradation of tagged MITF mediated by IMiD: 10 μM compound for 24 hours, IKZF3 136-180 and 236-249- and lysine free-tagged MITF
Method: IKZF3-based degradation tags were evaluated for their ability to facilitate the degradation of melanogenesis associated transcription factor (MITF) or avian myelocytomatosis viral oncogene (MYC) homolog by Western blot. In addition to the IKZF3-based degradation tags, MITF and MYC were also fused to a FLAG tag to facilitate their detection using an anti-FLAG antibody.
DMSO was used as vehicle control.

[12] = tested on: NanoLuciferase fused to various IKZF3-based degradation tags; assay: Western blot of variant IKZF3-based degradation tags fused to NanoLuciferase in HEK293T cells; assay type: cell-based, human; conditions: tag fused to N-terminus of NanoLuciferase
Method: Additionally, the IKZF3-based degradation tags were modified using the following strategies:
(1) deleting N-terminal and/or C-terminal amino acid residues;
Protein degradation was measured using western blot as described in Example 2.

[13] = target: T4, IKZF3 136-180 and 236-249-tagged NanoLuciferase (Homo sapiens, UniProt Q96SW2+Q9UKT9, DEL181-196/S197T); assay type: cell-based; conditions: 1-hour pre-treatment (10 μM MG132; 128 or 12.8 ng/mL cyclohexamide)
T4 construct: expressed in transfected cells; host or cells: HEK293T

[14] = target: IKZF3 136-180 and 236-249-tagged CD19 (Homo sapiens, UniProt P15391); conditions: 10 μM MG132 pre-treatment, 10 μM lenalidomide
[15] = tested on: IKZF3 136-180 and 236-249-tagged NanoLuciferase; conditions: 10 μM MG132 one-hour pre-treatment, then 100 μM lenalidomide
[16] = tested on: HilD-tagged CAR19 or FurON-CAR19 (NFAT luciferase reporter); assay: JNL NFAT luciferase reporter assay, lenalidomide dose-response at three treatment time points; assay type: cell-based, human
[17] = target: T5, HilD-Tau (wild type) (Homo sapiens, UniProt P10636+Q96SW2); assay: Quantification of HilD-Tau degradation by Western analysis in HEK293T cells; assay type: cell-based; conditions: 1 μM MLN4924 co-treatment including 1 hour pretreatment
T5 construct: expressed in transfected cells; host or cells: HEK293T

[18] = tested on: CAR19 fused to HilD tag and/or FurON; assay: Western blot of CAR19 fused to HilD tag and/or FurON in JNL cells; assay type: cell-based, human; conditions: 10 μM lenalidomide, 24 hours; FurON constructs with 1 μM bazedoxifene

- CAR surface expression in JNL CAR19-CARBtag cells [1]: reduced CAR surface expression
- degradation of IKZF1 [2]: not IKZF1 or IKZF3
- degradation of IKZF3 [4]: not IKZF1 or IKZF3
- response of CAR19-CARBtag cells to CD19+ Nalm6 cells (NFAT luciferase) [5]: reduced in a dose-dependent manner
- degradation of IKZF2 [6]: specifically degrade IKZF2
- degradation of CARB-tagged MITF (Western blot) [8]: effectively degraded
- protein levels of CAR19-CARBtag (Western blot) [10]: dose-dependent decrease
Molecule: O=C1CCC(N2Cc3cc(C4CCN(Cc5ccc(F)cc5)CC4)ccc3C2=O)C(=O)N1 (stereo not drawn) [Compound I-112, 3-(5-(1-(4-fluorobenzyl)piperidin-4-yl)-1-oxoisoindolin-2-yl)piperidine-2,6-dione]
- degradation of CARB-tagged MITF [3]: I-112-specific degradation of the CARB-tagged MITF
- degradation of CAR19-CARBtag [7]: dose-responsive degradation of CAR19-CARBtag
- expression of CD19-HilDtag (Western blot) [9]: remained constant

Molecule: IKZF3 136-180: tag with amino acid residues 136-180 of IKZF3, SEQ ID NO: 5
- ability of the tag to mediate lenalidomide-dependent degradation of MITF [11]: to a lesser degree than IKZF3 136-180 and 236-249
- ability of the tag to facilitate lenalidomide-dependent degradation of NanoLuciferase [12]: able to mediate lenalidomide-dependent degradation

Molecule: IKZF3 136-180 and 236-249: IKZF3-based degradation tag with amino acid residues 136-180 and 236-249 of human IKZF3, SEQ ID NO: 3 (HKRSHTGERPFQCNQCGASFTQKGNLLRHIKLHTGEKPFKCHLCNTASAEARHIKAEMG; source: /note="Description of Unknown: IKZF3 sequence")
- ability of the tag to mediate lenalidomide-dependent degradation of MITF [11]: more effective than IKZF3 136-180
- ability of the tag to facilitate lenalidomide-dependent degradation of NanoLuciferase [12]: facilitated lenalidomide-dependent degradation of NanoLuciferase; also recorded: facilitated lenalidomide-induced degradation

Molecule: IKZF3 136-180 Q147H: variant of IKZF3 136-180 with glutamine at position 147 replaced with histidine, SEQ ID NO: 27
- ability of the tag to mediate lenalidomide-dependent degradation of MITF [11]: blocked the ability of IKZF3 136-180 to mediate the lenalidomide-dependent degradation of MITF; also recorded: did not show degradation

Molecule: IKZF3 140-170 MALEK: tag comprising the amino acid sequence of SEQ ID NO: 87
- ability of the tag to facilitate lenalidomide-dependent degradation of NanoLuciferase [12]: did not mediate lenalidomide-induced degradation; also recorded: did not mediate lenalidomide induced degradation

Molecule: IKZF3 136-170 MALEK: IKZF3 136-170 with helix MALEKMALEKMALE, SEQ ID NO: 86
- ability of the tag to facilitate lenalidomide-dependent degradation of NanoLuciferase [12]: retained the ability to facilitate lenalidomide-dependent degradation; also recorded: able to mediate lenalidomide-dependent degradation; also recorded: facilitated lenalidomide-induced degradation

Molecule: C[C@@H]1C[C@@H]([C@H](O)CC2CC(=O)NC(=O)C2)C(=O)[C@@H](C)C1 [cyclohexamide]
- effect of pre-treatment on lenalidomide-dependent degradation of NanoLuciferase [13]: No obvious reduction

Molecule: lysine free IKZF3 136-180 and 236-249: variant in which every lysine residue in the tag was mutated to arginine, SEQ ID NO: 4
- ability of the tag to mediate lenalidomide-dependent degradation of MITF [11]: did not significantly impact the ability of this tag to mediate lenalidomide-dependent degradation of MITF

Molecule: CC(C)C[C@@H](C=O)NC(=O)[C@H](CC(C)C)NC(=O)[C@H](CC(C)C)NC(=O)OCc1ccccc1 [MG132] (Cbz-Leu-Leu-Leu-aldehyde)
- effect of MG132 on lenalidomide-induced reduction of surface CD19 [14]: partially blocked
- effect of MG132 on lenalidomide-dependent degradation of tagged MITF ([11]; MG132 treatment): blocked
- effect of MG132 on lenalidomide-dependent degradation [15]: not observed; also recorded: blocked
- effect of pre-treatment on lenalidomide-dependent degradation of NanoLuciferase [13]: blocked
- rescue by MG132 of lenalidomide-induced reduction of reporter signal ([16]; HilD-tagged CAR19 or lysine-free-HilD-tagged CAR19 (constructs 769, 770)): partially rescued
- rescue by MG132 of lenalidomide-induced reduction of reporter activation ([16]; construct 767, MG132 5 hours prior to target cells): mostly rescued

Molecule: O=C1CCC(N2C(=O)c3ccccc3C2=O)C(=O)N1 (stereo not drawn) [thalidomide, 2-(2,6-dioxopiperidin-3-yl)isoindoline-1,3-dione, reference compound]
- degradation of tagged MITF mediated by IMiD [11]: much less effective

Molecule: Nc1cccc2c1C(=O)N(C1CCC(=O)NC1=O)C2=O (stereo not drawn) [pomalidomide, 4-amino-2-(2,6-dioxopiperidin-3-yl)isoindoline-1,3-dione, reference compound]
- degradation of tagged MITF mediated by IMiD [11]: effectively facilitated degradation of tagged MITF
- degradation of tagged MITF mediated by IMiD ([11]; listed as Pomalidomide): slightly greater extent than lenalidomide

Molecule: NS(=O)(=O)OC[C@@H]1C[C@@H](n2ccc3c(N[C@H]4CCc5ccccc54)ncnc32)C[C@@H]1O [MLN4924]
- effect of MLN4924 on lenalidomide-induced degradation of Tau [17]: sensitive; also recorded: prevented degradation of Tau

B1: construct 765: signal peptide, FurOn, and CAR19 (protein)
chain: RSSLALSLTADQMVSALLDAEPPILYSEYDPTRPFSEASMMGLLTNLADRELVHMINWAKRVPGFVDLALHDQVHLLECAWMEILMIGLVWRSMEHPGKLLFAPNLLLDRNQGKCVEGGVEIFDMLLATSSRFRMMNLQGEEFVCLKSIILLNSGVYTFLSSTLKSLEEKDHIHRVLDKITDTLIHLMAKAGLTLQQQHQRLAQLLLILSHIRHMSSKRMEHLYSMKCKNVVPLSDLLLEMLDAHRLGTGAEDPRPSRKRRSLGDVGEIVMTQSPATLSLSPGERATLSCRASQDISKYLNWYQQKPGQAPRLLIYHTSRLHSGIPARFSGSGSGTDYTLTISSLQPEDFAVYFCQQGNTLPYTFGQGTKLEIKGGGGSGGGGSGGGGSQVQLQESGPGLVKPSETLSLTCTVSGVSLPDYGVSWIRQPPGKGLEWIGVIWGSETTYYQSSLKSRVTISKDNSKNQVSLKLSSVTAADTAVYYCAKHYYYGGSYAMDYWGQGTLVTVSSTTTPAPRPPTPAPTIASQPLSLRPEACRPAAGGAVHTRGLDFACDIYIWAPLAGTCGVLLLSLVITLYCKRGRKKLLYIFKQPFMRPVQTTQEEDGCSCRFPEEEEGGCELRVKFSRSADAPAYQQGQNQLYNELNLGRREEYDVLDKRRGRDPEMGGKPRRKNPQEGLYNELQKDKMAEAYSEIGMKGERRRGKGHDGLYQGLSTATKDTYDALHMQALPPR
- effect of lenalidomide on the CAR construct (Western blot) [18]: did not have any impact
